Reference: patent US20250205186A1, “USE OF CHLOROGENIC ACID IN PREPARING MEDICINE OR PHARMACEUTICAL COMPOSITION FOR PREVENTING OR TREATING PAIN” (SICHUAN JIUZHANG BIOLOGICAL SCIENCE AND TECHNOLOGY CO., LTD., priority 2019, published 2025)

Legend:
NE = NE content in brain tissue by HPLC-EC in bone cancer pain rats; assay type: in vivo, rat; settings: for NE content in the brain tissue: after 15 days of administration
Experimental: (§1) 60 SD rats were randomly selected, and after anesthesia, a small 1 cm incision was made in the upper tibial skin. A 10 mL syringe needle was used to puncture and perforate, then a 10 μL syringe was inserted into the bone marrow cavity, and 3 μL cell suspension containing […] Walker rat breast cancer cells was slowly injected. The pinhole was sealed with bone wax, and the skin was sutured. After surgery, the rats were placed on a 37° C. hot plate for rewarming. After recovery, rats were returned to the cage for further breeding, to obtain the model group. In addition, 8 SD rats were randomly selected, and an equal volume of PBS solution was injected into the marrow cavity of the left upper tibia. The rest of the operations were the same as the model group, to obtain the sham operation group. The rats that had been successfully modeled were randomly divided into groups, eight rats for each group, that included high-dose chlorogenic acid group (80 mg/kg), middle-dose chlorogenic acid group (40 mg/kg), low-dose chlorogenic acid group (20 mg/kg), model negative group (N.S normal saline), and sham operation group (N.S normal saline). The rats were intraperitoneally injected with drugs for 15 days in a volume of 0.2 mL/10 g, once a day; the model-negative group and the sham operation group were given the same volume of normal saline. After the rats were sacrificed, the hypothalamus was quickly separated, homogenized in an ice bath with perchloric acid, and centrifuged. The supernatant was collected, and the contents of NE, DA, and 5-HT were determined by HPLC-EC method (Hou […], Wang Na, et al, Effects of progesterone on morphine-induced conditioned place preference and levels of monoamine transmitters in rat brain. Chinese Journal of Pharmacology, 2006, 22(8), 980-983).

DA = DA content in brain tissue by HPLC-EC in bone cancer pain rats; assay type: in vivo, rat; settings: for DA content in the brain tissue: after 15 days of administration
Experimental: as §1

[1] = system: bone cancer pain in rats (Walker rat breast cancer cells, tibia implant model); test: Radiant heat pain response (pain threshold) in rat tibia implant bone cancer pain model; assay type: in vivo; settings: for Radiant heat pain threshold compared with the model group: from 7 days after administration, p<0.05
Experimental: After two SD female rats were intraperitoneally injected with 0.5 mL cancer cells (4×10^4 cells/μL), ascites was collected on the 7th day, and the cells are rinsed 3 times with sterile 0.01 mol/L PBS to adjust to the concentration of 4×10^3 cells/μL for use. 60 SD rats were randomly selected, and after anesthesia, a small 1 cm incision was made in the upper tibial skin. A 10 mL syringe needle was used to puncture and perforate, then a 10 μL syringe was inserted into the bone marrow cavity, and 3 μL cell suspension containing 3×10^3 Walker rat breast cancer cells was slowly injected. The pinhole was sealed with bone wax, and the skin was sutured. After surgery, the rats were placed on a 37° C. hot plate for rewarming. After recovery, rats were returned to the cage for further breeding, to obtain the model group. In addition, 8 SD rats were randomly selected, and an equal volume of PBS solution was injected into the marrow cavity of the left upper tibia. The rest of the operations were the same as the model group, to obtain the sham operation group. Radiation thermal pain response: the rat was placed on a glass plate, and the affected side of the foot was irradiated with a heat radiator. The plantar side of each rat would be tested 3 times at an interval of 5 min. The response time from exposure to paw withdrawal was recorded, and the time to retract the paw was the pain threshold. […] The rats that had been successfully modeled were randomly divided into groups, eight rats for each group, that included high-dose chlorogenic acid group (80 mg/kg), middle-dose chlorogenic acid group (40 mg/kg), low-dose chlorogenic acid group (20 mg/kg), model negative group (N.S normal saline), and sham operation group (N.S normal saline). The rats were intraperitoneally injected with drugs for 15 days in a volume of 0.2 mL/10 g, once a day; the model-negative group and the sham operation group were given the same volume of normal saline. From the second day after administration, the mechanical pain hypersensitivity and radiation thermal pain were investigated before each administration, and the paw withdrawal threshold and the pain threshold were recorded.

Compound: O=C(/C=C/c1ccc(O)c(O)c1)O[C@@H]1C[C@](O)(C(=O)O)C[C@@H](O)[C@H]1O [Chlorogenic acid]
- NE content in the brain tissue (NE; 20 mg/kg ip once a day): 0.99 ± 0.18 nmol/g
- NE content in brain tissue compared with the model-negative group (NE; 20 mg/kg, p<0.05): the difference was significant
- NE content in the brain tissue (NE; 40 mg/kg ip once a day): 0.91 ± 0.15 nmol/g
- NE content in brain tissue compared with the model-negative group (NE; 40 mg/kg, p<0.05): the difference was significant
- NE content in the brain tissue (NE; 80 mg/kg ip once a day): 1.47 ± 0.26 nmol/g
- NE content in brain tissue compared with the model-negative group (NE; 80 mg/kg, p>0.05): no significant difference
- DA content in the brain tissue (DA; 20 mg/kg ip once a day): 1.38 ± 0.21 nmol/g
- DA content in brain tissue compared with the model-negative group (DA; 20 mg/kg, p<0.05): the difference was significant
- DA content in the brain tissue (DA; 40 mg/kg ip once a day): 1.46 ± 0.08 nmol/g
- DA content in brain tissue compared with the model-negative group (DA; 40 mg/kg, p<0.05): the difference was significant
- DA content in the brain tissue (DA; 80 mg/kg ip once a day): 1.15 ± 0.12 nmol/g
- DA content in brain tissue compared with the model-negative group (DA; 80 mg/kg, p>0.05): no significant difference
- Pain threshold ([1]; 20 mg/kg ip once a day, 2 d): 3.86 s
- Pain threshold ([1]; 20 mg/kg ip once a day, 3 d): 4.11 s
- Pain threshold ([1]; 20 mg/kg ip once a day, 4 d): 3.93 s
- Pain threshold ([1]; 20 mg/kg ip once a day, 5 d): 9.53 s
- Pain threshold ([1]; 20 mg/kg ip once a day, 6 d): 16.66 s
- Pain threshold ([1]; 20 mg/kg ip once a day, 7 d): 17.89 s
- Pain threshold ([1]; 20 mg/kg ip once a day, 8 d): 16.72 s
- Pain threshold ([1]; 20 mg/kg ip once a day, 9 d): 15.45 s
- Pain threshold ([1]; 20 mg/kg ip once a day, 10 d): 16.74 s
- Pain threshold ([1]; 20 mg/kg ip once a day, 11 d): 15.52 s
- Pain threshold ([1]; 20 mg/kg ip once a day, 12 d): 15.97 s
- Pain threshold ([1]; 20 mg/kg ip once a day, 13 d): 16.35 s
- Pain threshold ([1]; 20 mg/kg ip once a day, 14 d): 16.22 s
- Pain threshold ([1]; 20 mg/kg ip once a day, 15 d): 16.75 s
- Radiant heat pain threshold compared with the model group ([1]; 20 mg/kg): significant difference
- Pain threshold ([1]; 40 mg/kg ip once a day, 2 d): 3.62 s
- Pain threshold ([1]; 40 mg/kg ip once a day, 3 d): 3.52 s
- Pain threshold ([1]; 40 mg/kg ip once a day, 4 d): 6.36 s
- Pain threshold ([1]; 40 mg/kg ip once a day, 5 d): 12.52 s
- Pain threshold ([1]; 40 mg/kg ip once a day, 6 d): 20.53 s
- Pain threshold ([1]; 40 mg/kg ip once a day, 7 d): 20.49 s
- Pain threshold ([1]; 40 mg/kg ip once a day, 8 d): 19.83 s
- Pain threshold ([1]; 40 mg/kg ip once a day, 9 d): 21.21 s
- Pain threshold ([1]; 40 mg/kg ip once a day, 10 d): 24.32 s
- Pain threshold ([1]; 40 mg/kg ip once a day, 11 d): 20.59 s
- Pain threshold ([1]; 40 mg/kg ip once a day, 12 d): 21.41 s
- Pain threshold ([1]; 40 mg/kg ip once a day, 13 d): 22.39 s
- Pain threshold ([1]; 40 mg/kg ip once a day, 14 d): 21.74 s
- Pain threshold ([1]; 40 mg/kg ip once a day, 15 d): 20.88 s
- Radiant heat pain threshold compared with the model group ([1]; 40 mg/kg): significant difference
- Pain threshold ([1]; 80 mg/kg ip once a day, 2 d): 4.17 s
- Pain threshold ([1]; 80 mg/kg ip once a day, 3 d): 4.24 s
- Pain threshold ([1]; 80 mg/kg ip once a day, 4 d): 4.09 s
- Pain threshold ([1]; 80 mg/kg ip once a day, 5 d): 5.52 s
- Pain threshold ([1]; 80 mg/kg ip once a day, 6 d): 8.15 s
- Pain threshold ([1]; 80 mg/kg ip once a day, 7 d): 8.22 s
- Pain threshold ([1]; 80 mg/kg ip once a day, 8 d): 7.98 s
- Pain threshold ([1]; 80 mg/kg ip once a day, 9 d): 7.59 s
- Pain threshold ([1]; 80 mg/kg ip once a day, 10 d): 8.03 s
- Pain threshold ([1]; 80 mg/kg ip once a day, 11 d): 8.05 s
- Pain threshold ([1]; 80 mg/kg ip once a day, 12 d): 7.76 s
- Pain threshold ([1]; 80 mg/kg ip once a day, 13 d): 7.98 s
- Pain threshold ([1]; 80 mg/kg ip once a day, 14 d): 8.52 s
- Pain threshold ([1]; 80 mg/kg ip once a day, 15 d): 8.38 s
- Threshold compared with the model group (radiant heat pain section) ([1]; 80 mg/kg, p>0.05): not statistically significant
